Common to all, as to experiment: Antibacterial spectrum (MIC), agar dilution
Format in all cases: cell-based
A general note: In agar dilution, organisms are placed on agar that contains the substance at set levels.

One assay has as its system H.influenzae 1. The conditions noted are these: Haemophilus influenzae, read-out: MIC. As to the method: (§1) In vitro activity was determined by minimum inhibitory concentration in a microorganism spectum by the agar dilution method in Mueller Hinton agar.
The test system of the next assay is E.coli 25922. The conditions noted are these: Escherichia coli, read-out: MIC. How it is done: as §1
A further assay deals with M.morganii 6H-137. Conditions: Morganella morganii, 6H137, read-out: MIC. As to the method:
as §1

The test system of a further assay is S.pyogenes B15. The conditions noted are these: Streptococcus pyogenes, read-out: MIC. How it is done: as §1
The subject of the next assay is X.maltophilia 1AC739. Conditions: Stenotrophomonas maltophilia, read-out: MIC. As to the method:
as §1

In the next assay the test system is S.agalactiae QK44. Conditions: Streptococcus agalactiae, read-out: MIC. How it is done:
as §1

For another assay, the system named is S.marcescens 69438. Conditions: Serratia marcescens, read-out: MIC. How it is done:
as §1

A further assay concerns S.aureus 6538. The conditions noted are these: Staphylococcus aureus, read-out: MIC. As to the method:
as §1

For a further assay, the system named is P.vulgaris 1028. Conditions: Proteus vulgaris, read-out: MIC. As to the method: as §1
For another assay, the system named is K.pneumoniae 418. Conditions: Klebsiella pneumoniae, read-out: MIC. As to the method:
as §1

In the next assay the test system is C.freundii 902. The conditions noted are these: Citrobacter freundii, read-out: MIC. How it is done: as §1
The test system of another assay is C.freundii 43. The conditions noted are these: Citrobacter freundii, read-out: MIC. How it is done: as §1
For the next assay, the system named is Acinetobacter sp.51-156. Conditions: SP.51156, read-out: MIC. How it is done:
as §1

The next assay relates to P.aeruginosa 27853. Conditions: Pseudomonas aeruginosa, read-out: MIC. As to the method:
as §1

For the next assay, the system named is E.cloacae 908R. Conditions: Enterobacter cloacae, read-out: MIC. As to the method:
as §1

The next assay has as its system S.viridans group 016. Conditions: Streptococcus viridans, read-out: MIC. As to the method:
as §1

Another assay concerns S.pneumoniae Q19. Conditions: Streptococcus pneumoniae, read-out: MIC. As to the method:
as §1

The next assay deals with S.aureus 734 MRSA. Conditions: Staphylococcus aureus, read-out: MIC. As to the method:
as §1

The subject of the next assay is N.meningitidis 69480. The conditions noted are these: Neisseria meningitidis, read-out: MIC. As to the method: as §1
The subject of another assay is E.faecalis 6. Conditions: Enterococcus faecalis, read-out: MIC. How it is done: as §1
The test system of another assay is E.cloacae 908SSi. The conditions noted are these: Enterobacter cloacae, read-out: MIC. As to the method: as §1
In a further assay the test system is L.monocytogenes BK23. The conditions noted are these: Listeria monocytogenes, read-out: MIC. How it is done:
as §1

For another assay, the system named is M.catarrhalis RA21. The conditions noted are these: Moraxella catarrhalis, read-out: MIC. As to the method:
as §1

The subject of a further assay is P.mirabilis 2117. Conditions: Proteus mirabilis, read-out: MIC. How it is done:
as §1

In brackets after ≈: the same amount, converted by molar mass. Bounds are passed on as bounds.

In patent EP0620225B1, “Cephalosporin derivatives” (Basilea Pharmaceutica AG, priority 1993, dated 1994) one finds MIC data, which are given here for two compounds.

Consider `C#CCN1CC/C(=C\C2=C(C(=O)O)N3C(=O)[C@@H](NC(=O)/C(=N\O)c4csc(N)n4)[C@H]3SC2)C1=O` [O, [6R-[3(E),6α,7β(Z)]]-7-[[(2-Amino-4-thiazolyl)(hydroxyimino)acetyl]-amino]-8-oxo-3-[[2-oxo-1-(2-propynyl)-3-pyrrolidinylidene]methyl]-5-thia-1-azabicyclo [4.2.0]-oct-2-ene-2-carboxylic acid], for which the MIC was 0.25 µg/mL (≈ 0.497 µM) in the assay with H.influenzae 1; at most 0.06 µg/mL in the assay with E.coli 25922; at most 0.06 µg/mL in the assay with M.morganii 6H-137; at most 0.06 µg/mL in the assay on S.pyogenes B15; above 32 µg/mL with X.maltophilia 1AC739; 0.25 µg/mL (≈ 0.497 µM) in the assay with S.agalactiae QK44. The MIC in the assay with S.marcescens 69438 was 1 µg/mL (≈ 1.99 µM); in the assay with S.aureus 6538 it was 1 µg/mL (≈ 1.99 µM); with P.vulgaris 1028 it was 8 µg/mL (≈ 15.9 µM); with K.pneumoniae 418, 0.12 µg/mL (≈ 0.239 µM); in the assay on C.freundii 902 it was 0.12 µg/mL (≈ 0.239 µM); in the assay on C.freundii 43, 4 µg/mL (≈ 7.96 µM). Moreover, the MIC in the assay with Acinetobacter sp.51-156 is 16 µg/mL (≈ 31.8 µM); in the assay with P.aeruginosa 27853 it was 8 µg/mL (≈ 15.9 µM); in the assay on E.cloacae 908R, 16 µg/mL (≈ 31.8 µM); with S.viridans group 016, 0.5 µg/mL (≈ 0.995 µM); in the assay on S.pneumoniae Q19, at most 0.06 µg/mL; in the assay with S.aureus 734 MRSA it was 4 µg/mL (≈ 7.96 µM). For the same compound, the MIC in the assay with N.meningitidis 69480 is 0.25 µg/mL (≈ 0.497 µM); in the assay on E.faecalis 6, 2 µg/mL (≈ 3.98 µM); in the assay with E.cloacae 908SSi, 1 µg/mL (≈ 1.99 µM); in the assay on L.monocytogenes BK23, 2 µg/mL (≈ 3.98 µM); in the assay on M.catarrhalis RA21 it was 4 µg/mL (≈ 7.96 µM); with P.mirabilis 2117 it was at most 0.06 µg/mL.

Consider `Nc1nc(/C(=N/O)C(=O)N[C@@H]2C(=O)N3C(C(=O)O)=C(/C=C4\CCN(c5cnccn5)C4=O)CS[C@H]23)cs1` [P], for which the MIC was 0.5 µg/mL (≈ 0.922 µM) in the assay with H.influenzae 1; at most 0.06 µg/mL with E.coli 25922; at most 0.06 µg/mL with M.morganii 6H-137; at most 0.06 µg/mL with S.pyogenes B15; above 32 µg/mL with X.maltophilia 1AC739; 0.5 µg/mL (≈ 0.922 µM) in the assay on S.agalactiae QK44. The MIC was 4 µg/mL (≈ 7.37 µM) in the assay with S.marcescens 69438; 0.5 µg/mL (≈ 0.922 µM) with S.aureus 6538; 4 µg/mL (≈ 7.37 µM) in the assay with P.vulgaris 1028; 0.25 µg/mL (≈ 0.461 µM) in the assay on K.pneumoniae 418; 0.12 µg/mL (≈ 0.221 µM) in the assay with C.freundii 902; 2 µg/mL (≈ 3.69 µM) in the assay on C.freundii 43. The MIC in the assay on Acinetobacter sp.51-156 amounted to 32 µg/mL (≈ 59 µM); in the assay on P.aeruginosa 27853, 8 µg/mL (≈ 14.7 µM); in the assay with E.cloacae 908R it was 8 µg/mL (≈ 14.7 µM); in the assay on S.viridans group 016 it was 1 µg/mL (≈ 1.84 µM); with S.pneumoniae Q19, 0.12 µg/mL (≈ 0.221 µM); in the assay with S.aureus 734 MRSA, 8 µg/mL (≈ 14.7 µM). Also, the MIC with N.meningitidis 69480 was 0.5 µg/mL (≈ 0.922 µM); in the assay with E.faecalis 6, 0.5 µg/mL (≈ 0.922 µM); with E.cloacae 908SSi, 0.25 µg/mL (≈ 0.461 µM); with L.monocytogenes BK23, 4 µg/mL (≈ 7.37 µM); in the assay with M.catarrhalis RA21, 8 µg/mL (≈ 14.7 µM); in the assay on P.mirabilis 2117, 0.12 µg/mL (≈ 0.221 µM).
